Residues, ends and D or L forms follow the SMILES beside them.
Tests used:
high-fat fed rats = experiment: Example 33: ROS production and redox state in rats fed a high-fat diet; assay type: in vivo, rat
Description: Ten rats maintained on a high-fat diet will receive daily intraperitoneal injections of peptide conjugates (1.5 mg/kg); aromatic-cationic peptides (an equivalent molar dose of aromatic-cationic peptide based on the concentration of the aromatic-cationic peptide administered in the peptide conjugate treatment group); SPN10(s) (an equivalent molar dose of SPN10 based on the concentration of SPN10 administered in the peptide conjugate treatment group); or SPN10(s) in combination with aromatic-cationic peptides (e.g., an equivalent molar dose of SPN10 based on the concentration of SPN10 administered in the peptide conjugate treatment group and an equivalent molar dose of aromatic-cationic peptide based on the concentration of aromatic-cationic peptide administered in the peptide conjugate treatment group) dissolved in phosphate-buffered saline. Dose response curves for peptide conjugates, aromatic-cationic peptides and SPN10(s) with or without aromatic-cationic peptides will be established in vitro and in vivo. Mitochondrial function will be measured according to the methods described herein.
Next, rats will be placed on a high-fat diet (60%) for six weeks with daily administration of vehicle, peptide conjugates, aromatic-cationic peptides, or SPN10(s) with or without aromatic-cationic peptides.
Protein homogenates will be prepared by homogenizing 100 mg of frozen muscle in a buffer containing 10 mM Tris, 1 mM EDTA, 1 mM EGTA, 2 mM NaOrthovanadate, 2 mM NaPyrophosphate, 5 mM NaF, and protease inhibitor cocktail (Complete), at pH 7.2. After homogenization, 1% Triton X-100 will be added to the protein suspension, which will be vortexed and incubated on ice for 5 minutes. Samples will be centrifuged at 10,000 rpm for 10 minutes to pellet the insoluble debris. For GSSG measurement, tissue will be homogenized in a solution containing 20 mM Methyl-2-vinylpyridinium triflate to scavenge all reduced thiols in the sample. Total GSH and GSSG will be measured using a commercially available GSH/GSSG assay (Oxis Research Products, Percipio Biosciences, Foster City, CA, U.S.A).
To establish a link between the increased mitochondrial H2O2 production brought about by high-fat diet and its effect on overall redox environment of skeletal muscle, both GSH and GSSG will be measured in skeletal muscle from standard chow-fed and high-fat fed rats 1) following a 10 hour fast, and 2) 1 hour after administration of a standard glucose load (oral gavage, 10 hour fasted).

[1] = test system: Islet cells isolated from mouse pancreas; experiment: Example 29: viability of isolated pancreatic islet cells; assay type: cell-based; details: added to isolation buffers
From the text: Islet cells will be isolated from mouse pancreas according to standard procedures. Peptide conjugates, aromatic-cationic peptides, SPN10(s) with or without aromatic-cationic peptides or control vehicle will be added to isolation buffers used throughout the isolation procedure. Mitochondrial membrane potential will be measured using TMRM (red) and visualized by confocal microscopy, and apoptosis will be measured by flow cytometry using annexin V and necrosis by propidium iodide.

[2] = test system: acute myocardial infarction; experiment: Infarct size at revascularization in acute myocardial infarction patients; assay type: in vivo, human; details: IV at the time of reperfusion
From the text: Men and women, 18 years of age or older, who present after the onset of chest pain, and for whom the clinical decision is made to treat with a revascularization procedure (e.g., PCI or thrombolytics) will be eligible for enrollment. […] The diagnosis is made therefore purely on the basis of symptoms, clinical examination and ECG changes. […] The patient often has a history of having experienced angina, but the ECG at the time of the suspected attack may show no abnormality at all. […] Left ventricular and coronary angiography will be performed with the use of standard techniques, just before revascularization. Revascularization will be performed by PCI with the use of direct stenting. […] The primary end point is the size of the infarct as assessed by measurements of cardiac biomarkers. […] Coronary biomarkers will be measured in each patient. For example, the area under the curve (AUC) (expressed in arbitrary units) for creatine kinase and troponin I release (Beckman kit) may be measured in each patient by computerized planimetry. The principal secondary end point is the size of the infarct as measured by the area of delayed hyperenhancement that is seen on cardiac magnetic resonance imaging (MRI), assessed on day 5 after infarction. […] The images are analyzed in short axis slices covering the entire left ventricle. […]

normal, mobile mice = experiment: Skeletal muscle size and mitochondrial function in normal, mobile mice; assay type: in vivo, mouse
From the text: 1. Normal, mobile mice: Normal, mobile mice will be randomly divided into […], A-E, with 8 mice per group. Group A mice will receive an injection of saline vehicle; Group B mice will receive an i.p. injection of the peptide conjugate; Group C mice will receive an i.p. injection of aromatic-cationic peptide; Group D mice will receive an i.p. injection of SPN10; Group E mice will receive an i.p. injection of SPN10+aromatic-cationic peptide.
Preparation of permeabilized muscle fibers. Permeabilized muscle fibers will be prepared as previously described. Korshunov, et al., FEBS Lett 416:15-18, 1997; Tonkonogi, et al., Pfliigers Arch 446:261-269, 2003. Briefly, the muscle will be trimmed of connective tissue and cut down to fiber bundles (4-8 mg wet wt). […]
Mitochondrial respiration in permeabilized fibers. Respiration will be measured polarographically in a respiration chamber maintained at 37° C. […] Flux through complex I will be measured using 5 mM pyruvate and 2 mM malate. […] Basal respiration (state 4) will be determined in the presence of 10 µg/mL oligomycin to inhibit ATP synthesis. The respiratory control ratio (RCR) will be calculated by dividing state 3 by state 4 respiration.

N=C(N)NCCC[C@H](NC(=O)[C@@H](N)Cc1c[nH]c2ccccc12)C(=O)N[C@@H](Cc1c[nH]c2ccccc12)C(=O)N[C@@H](CCCCN)C(N)=O [SPN10, H-L-Trp-L-Arg-L-Trp-L-Lys-NH2] (H-WRWK-NH2)
GSH/GSSG ratio in skeletal muscle (high-fat fed rats; even following glucose ingestion): preserve the GSH/GSSG ratio near control levels | mitochondrial H2O2 production during succinate and palmitoyl-carnitine supported respiration (high-fat fed rats; high-fat diet (60%) six weeks, daily administration): reduction in mitochondrial H2O2 production | mitochondrial H2O2 production during succinate-supported respiration (dose response curves) (high-fat fed rats; in vitro and in vivo): reduction in mitochondrial H2O2 production | reduction in total cellular glutathione content (GSHt) by high-fat feeding (high-fat fed rats; skeletal muscle): irrespective of treatment | apoptosis of islet cells (annexin V) [1]: reduce apoptosis | islet cell viability (mitochondrial membrane potential) [1]: increase islet cell viability | infarct size versus placebo [2]: smaller infarct | normal soleus muscle weight, RCR, mitochondrial state 3 and state 4 respiration (normal, mobile mice; mobile mice): no effect | normal skeletal muscle size or mitochondrial function (normal, mobile mice; mouse, in vivo): no effect
